These results are taken from ChEMBL document CHEMBL4627382, “Iheyamides A-C, Antitrypanosomal Linear Peptides Isolated from a Marine Dapis sp. Cyanobacterium” (J Nat Prod, 2020).

Data set [1] concerns Trypanosoma brucei rhodesiense. Briefly: Antitrypanosomal activity against Trypanosoma brucei rhodesiense IL-1501 incubated for 69 hrs by AlamarBlue assay. The format is functional, organism-based. The note with it: IL-1501, 69 h. Background: The colour change of resazurin is a common sign of viable cells or microbes.
Data set [2] relates to Trypanosoma brucei brucei. The data set can be described thus: Antitrypanosomal activity against Trypanosoma brucei brucei 221 incubated for 69 hrs by AlamarBlue assay. Conditions: Trypanosoma brucei, 221, 69 h. The class given is functional, organism-based.
In data set [3] the test system is WI-38. Briefly: Cytotoxicity against human WI38 cells incubated for 72 hrs by MTT assay. The format is cell-based. Conditions: WI-38, 72 h.
Data set [4] in a line: Selectivity ratio of IC50 for human WI38 cells to IC50 for Trypanosoma brucei rhodesiense IL-1501. The format is toxicity. Conditions: read-out: Ratio IC50.
Data set [5] can be described thus: Selectivity ratio of IC50 for human WI38 cells to IC50 for Trypanosoma brucei brucei 221. The format is toxicity. The note with it: read-out: Ratio IC50.

One may read the IC50 as the concentration that inhibits the measured activity by half. Low readings indicate greater potency in that assay, high ones weaker potency in that assay.

`CC[C@@H](C)[C@H](C(=O)O)N(C)C(=O)[C@@H]1CCCN1C(=O)[C@H](C(C)C)N(C)C(=O)[C@@H](Cc1ccccc1)NC(=O)[C@H](Cc1ccccc1)N(C)C`: the IC50 in data set [1], in data set [2] and in data set [3] was above 20 µM throughout.

Take `CC[C@@H](C)[C@H](C(=O)N1CCC[C@H]1C(=O)N1C(=O)C=C(OC)[C@@H]1C(C)C)N(C)C(=O)[C@@H]1CCCN1C(=O)[C@H](C(C)C)N(C)C(=O)[C@@H](Cc1ccccc1)NC(=O)[C@H](Cc1ccccc1)N(C)C`: the IC50 came out at 1.5 µM in data set [1], 1.5 µM in data set [2] and 18 µM in data set [3]. Besides, the selectivity ratio in data set [4] and in data set [5] was above 10 in each case.

For `CC[C@@H](C)[C@H](C(=O)N1CCC[C@H]1C(=O)O)N(C)C(=O)[C@@H]1CCCN1C(=O)[C@H](C(C)C)N(C)C(=O)[C@@H](Cc1ccccc1)NC(=O)[C@H](Cc1ccccc1)N(C)C`, the IC50 in data set [1], in data set [2] and in data set [3] was above 20 µM each time.
